Measurements reported in PubChem BioAssay AID1963839 (Molecular Pharmacology Branch, DTP, NCI, 2024).

System: 817829-284-R-J1-PDC complex spheroid viability
Experiment: Anticancer human tumor 817829-284-R-J1-PDC patient-derived colon adenocarcinoma cell line growth inhibition [POLQ]
Conditions: for IC50: curve of first compound; for viability, T/C: stronger effect = lower value
In short: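 Growth inhibition in 3D: complex spheroids (tumor PDC, HUVEC, MSC) treated with POLQ inhibitor combinations; where Cmax unknown, highest tested concentration 10 microM, except SN-38 at 1 microM.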

[1] = second compound 0.0316 µM, first compound 0.0316 µM
[2] = second compound 0.0316 µM, first compound 0.1 µM
[3] = second compound 0.0316 µM, first compound 0.316 µM
[4] = second compound 0.0316 µM, first compound 1 µM
[5] = second compound 0.0316 µM, first compound 3.16 µM
[6] = second compound 0.0316 µM, first compound 10 µM
[7] = second compound 0.1 µM, first compound 0.0316 µM
[8] = second compound 0.1 µM, first compound 0.1 µM
[9] = second compound 0.1 µM, first compound 0.316 µM
[10] = second compound 0.1 µM, first compound 1 µM
[11] = second compound 0.1 µM, first compound 3.16 µM
[12] = second compound 0.1 µM, first compound 10 µM
[13] = second compound 0.316 µM, first compound 0.0316 µM
[14] = second compound 0.316 µM, first compound 0.1 µM
[15] = second compound 0.316 µM, first compound 0.316 µM
[16] = second compound 0.316 µM, first compound 1 µM
[17] = second compound 0.316 µM, first compound 3.16 µM
[18] = second compound 0.316 µM, first compound 10 µM
[19] = second compound 1 µM, first compound 0.0316 µM
[20] = second compound 1 µM, first compound 0.1 µM
[21] = second compound 1 µM, first compound 0.316 µM
[22] = second compound 1 µM, first compound 1 µM
[23] = second compound 1 µM, first compound 3.16 µM
[24] = second compound 1 µM, first compound 10 µM
[25] = second compound 3.16 µM, first compound 0.0316 µM
[26] = second compound 3.16 µM, first compound 0.1 µM
[27] = second compound 3.16 µM, first compound 0.316 µM
[28] = second compound 3.16 µM, first compound 1 µM
[29] = second compound 3.16 µM, first compound 3.16 µM
[30] = second compound 3.16 µM, first compound 10 µM
[31] = second compound 10 µM, first compound 0.0316 µM
[32] = second compound 10 µM, first compound 0.1 µM
[33] = second compound 10 µM, first compound 0.316 µM
[34] = second compound 10 µM, first compound 1 µM
[35] = second compound 10 µM, first compound 3.16 µM
[36] = second compound 10 µM, first compound 10 µM
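Also: spheroids exposed to compounds for 7 days.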
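For viability, T/C in this document: 100% = DMSO vehicle-treated spheroids.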

## C=CC(=O)N1CCN(c2nc(=O)n(-c3c(C)ccnc3C(C)C)c3nc(-c4c(O)cccc4F)c(F)cc23)C(C)C1 (stereo not given) + Nc1ccc(C#CCN(C(=O)Cc2ncc(C(F)(F)F)cc2C(F)(F)F)c2ccc(F)cc2)nn1
Second compound 0.0316 µM
  IC50: > 10000 nM
Second compound 0.1 µM
  IC50: > 10000 nM
Second compound 0.316 µM
  IC50: > 10000 nM
Second compound 1 µM
  IC50: > 10000 nM
Second compound 3.16 µM
  IC50: 9670 nM
Second compound 10 µM
  IC50: > 10000 nM
[1]
  viability, T/C: 77.4%
[2]
  viability, T/C: 103%
[3]
  viability, T/C: 97.2%
[4]
  viability, T/C: 93.5%
[5]
  viability, T/C: 91.7%
[6]
  viability, T/C: 51.3%
[7]
  viability, T/C: 95%
[8]
  viability, T/C: 110%
[9]
  viability, T/C: 101%
[10]
  viability, T/C: 99.8%
[11]
  viability, T/C: 84.2%
[12]
  viability, T/C: 60.5%
[13]
  viability, T/C: 104%
[14]
  viability, T/C: 91.3%
[15]
  viability, T/C: 96.6%
[16]
  viability, T/C: 98%
[17]
  viability, T/C: 93.5%
[18]
  viability, T/C: 61.6%
[19]
  viability, T/C: 102%
[20]
  viability, T/C: 119%
[21]
  viability, T/C: 112%
[22]
  viability, T/C: 97.8%
[23]
  viability, T/C: 94.5%
[24]
  viability, T/C: 52.9%
[25]
  viability, T/C: 96%
[26]
  viability, T/C: 89%
[27]
  viability, T/C: 102%
[28]
  viability, T/C: 90.8%
[29]
  viability, T/C: 76.2%
[30]
  viability, T/C: 49.2%
[31]
  viability, T/C: 114%
[32]
  viability, T/C: 84.1%
[33]
  viability, T/C: 90.6%
[34]
  viability, T/C: 90%
[35]
  viability, T/C: 79.8%
[36]
  viability, T/C: 51%

## CC(C)n1c(=O)n(C)c2cnc3cc(F)c(-c4ccc(OCCCN5CCCCC5)nc4)cc3c21 + Nc1ccc(C#CCN(C(=O)Cc2ncc(C(F)(F)F)cc2C(F)(F)F)c2ccc(F)cc2)nn1
Second compound 0.0316 µM
  IC50: > 10000 nM
Second compound 0.1 µM
  IC50: 7800 nM
Second compound 0.316 µM
  IC50: 8100 nM
Second compound 1 µM
  IC50: 6500 nM
Second compound 3.16 µM
  IC50: 9720 nM
Second compound 10 µM
  IC50: 7910 nM
[1]
  viability, T/C: 84.8%
[2]
  viability, T/C: 92.4%
[3]
  viability, T/C: 79.6%
[4]
  viability, T/C: 95.8%
[5]
  viability, T/C: 85.7%
[6]
  viability, T/C: 60.4%
[7]
  viability, T/C: 85.2%
[8]
  viability, T/C: 77.2%
[9]
  viability, T/C: 94.5%
[10]
  viability, T/C: 88.9%
[11]
  viability, T/C: 84.8%
[12]
  viability, T/C: 40.4%
[13]
  viability, T/C: 96.1%
[14]
  viability, T/C: 95%
[15]
  viability, T/C: 110%
[16]
  viability, T/C: 83.1%
[17]
  viability, T/C: 81.3%
[18]
  viability, T/C: 43.3%
[19]
  viability, T/C: 95%
[20]
  viability, T/C: 89.1%
[21]
  viability, T/C: 103%
[22]
  viability, T/C: 87.7%
[23]
  viability, T/C: 76%
[24]
  viability, T/C: 34.7%
[25]
  viability, T/C: 81.8%
[26]
  viability, T/C: 86.2%
[27]
  viability, T/C: 105%
[28]
  viability, T/C: 94.5%
[29]
  viability, T/C: 92.8%
[30]
  viability, T/C: 48.9%
[31]
  viability, T/C: 81.7%
[32]
  viability, T/C: 96%
[33]
  viability, T/C: 106%
[34]
  viability, T/C: 76.3%
[35]
  viability, T/C: 82.2%
[36]
  viability, T/C: 42%

## CC1COCCN1c1cc(-c2ccnn2C)c2ccnc(-c3ccn[nH]3)c2n1 (stereo not given) + Nc1ccc(C#CCN(C(=O)Cc2ncc(C(F)(F)F)cc2C(F)(F)F)c2ccc(F)cc2)nn1
Second compound 0.0316 µM
  IC50: 45.7 nM
Second compound 0.1 µM
  IC50: 47.9 nM
Second compound 0.316 µM
  IC50: 41.4 nM
Second compound 1 µM
  IC50: 48.6 nM
Second compound 3.16 µM
  IC50: 53.6 nM
Second compound 10 µM
  IC50: 51.2 nM
[1]
  viability, T/C: 66.6%
[2]
  viability, T/C: 15.1%
[3]
  viability, T/C: 5.55%
[4]
  viability, T/C: 3.95%
[5]
  viability, T/C: 3.46%
[6]
  viability, T/C: 3.51%
[7]
  viability, T/C: 69.3%
[8]
  viability, T/C: 16.2%
[9]
  viability, T/C: 5.6%
[10]
  viability, T/C: 3.72%
[11]
  viability, T/C: 3.57%
[12]
  viability, T/C: 2.68%
[13]
  viability, T/C: 60.5%
[14]
  viability, T/C: 16.4%
[15]
  viability, T/C: 5.61%
[16]
  viability, T/C: 3.98%
[17]
  viability, T/C: 3.56%
[18]
  viability, T/C: 2.61%
[19]
  viability, T/C: 70.6%
[20]
  viability, T/C: 15.2%
[21]
  viability, T/C: 6.24%
[22]
  viability, T/C: 4.01%
[23]
  viability, T/C: 3.75%
[24]
  viability, T/C: 3.12%
[25]
  viability, T/C: 72.8%
[26]
  viability, T/C: 23.1%
[27]
  viability, T/C: 5.89%
[28]
  viability, T/C: 4.04%
[29]
  viability, T/C: 3%
[30]
  viability, T/C: 3.74%
[31]
  viability, T/C: 73.9%
[32]
  viability, T/C: 16.9%
[33]
  viability, T/C: 5.59%
[34]
  viability, T/C: 3.74%
[35]
  viability, T/C: 3.56%
[36]
  viability, T/C: 2.98%

## CC1COCCN1c1cc(C2(S(C)(=N)=O)CC2)nc(-c2ccnc3[nH]ccc23)n1 (stereo not given) + Nc1ccc(C#CCN(C(=O)Cc2ncc(C(F)(F)F)cc2C(F)(F)F)c2ccc(F)cc2)nn1
Second compound 0.0316 µM
  IC50: 313 nM
Second compound 0.1 µM
  IC50: 437 nM
Second compound 0.316 µM
  IC50: 409 nM
Second compound 1 µM
  IC50: 487 nM
Second compound 3.16 µM
  IC50: 471 nM
Second compound 10 µM
  IC50: 306 nM
[1]
  viability, T/C: 83.3%
[2]
  viability, T/C: 74.2%
[3]
  viability, T/C: 48.2%
[4]
  viability, T/C: 25.8%
[5]
  viability, T/C: 8.98%
[6]
  viability, T/C: 4.09%
[7]
  viability, T/C: 83.5%
[8]
  viability, T/C: 82.1%
[9]
  viability, T/C: 60.7%
[10]
  viability, T/C: 21.9%
[11]
  viability, T/C: 8.16%
[12]
  viability, T/C: 4.21%
[13]
  viability, T/C: 99.9%
[14]
  viability, T/C: 86.6%
[15]
  viability, T/C: 57.8%
[16]
  viability, T/C: 24.6%
[17]
  viability, T/C: 7.24%
[18]
  viability, T/C: 5.14%
[19]
  viability, T/C: 86.9%
[20]
  viability, T/C: 87.2%
[21]
  viability, T/C: 67.6%
[22]
  viability, T/C: 20.4%
[23]
  viability, T/C: 7.25%
[24]
  viability, T/C: 5.6%
[25]
  viability, T/C: 95.7%
[26]
  viability, T/C: 83.7%
[27]
  viability, T/C: 66%
[28]
  viability, T/C: 22.3%
[29]
  viability, T/C: 6.64%
[30]
  viability, T/C: 4.14%
[31]
  viability, T/C: 86.6%
[32]
  viability, T/C: 76.3%
[33]
  viability, T/C: 48.1%
[34]
  viability, T/C: 23.1%
[35]
  viability, T/C: 5.64%
[36]
  viability, T/C: 5.25%

## CCc1cc2c(N3CCc4c(cc(Cn5ccnc5)cc4-c4cn(C)nc4C(F)(F)F)C3=O)ccnc2c(OC)n1 + Nc1ccc(C#CCN(C(=O)Cc2ncc(C(F)(F)F)cc2C(F)(F)F)c2ccc(F)cc2)nn1
Second compound 0.0316 µM
  IC50: 2590 nM
Second compound 0.1 µM
  IC50: 2410 nM
Second compound 0.316 µM
  IC50: 2610 nM
Second compound 1 µM
  IC50: 2330 nM
Second compound 3.16 µM
  IC50: 3440 nM
Second compound 10 µM
  IC50: 2630 nM
[1]
  viability, T/C: 84.2%
[2]
  viability, T/C: 77.9%
[3]
  viability, T/C: 84.1%
[4]
  viability, T/C: 76.3%
[5]
  viability, T/C: 44.5%
[6]
  viability, T/C: 29.7%
[7]
  viability, T/C: 83.7%
[8]
  viability, T/C: 82.7%
[9]
  viability, T/C: 78.2%
[10]
  viability, T/C: 67.9%
[11]
  viability, T/C: 44%
[12]
  viability, T/C: 37.5%
[13]
  viability, T/C: 86.3%
[14]
  viability, T/C: 74.6%
[15]
  viability, T/C: 64%
[16]
  viability, T/C: 64.8%
[17]
  viability, T/C: 49%
[18]
  viability, T/C: 34%
[19]
  viability, T/C: 83.6%
[20]
  viability, T/C: 70.5%
[21]
  viability, T/C: 74.8%
[22]
  viability, T/C: 60.7%
[23]
  viability, T/C: 44.8%
[24]
  viability, T/C: 31%
[25]
  viability, T/C: 97.5%
[26]
  viability, T/C: 95%
[27]
  viability, T/C: 72.7%
[28]
  viability, T/C: 68.8%
[29]
  viability, T/C: 52.1%
[30]
  viability, T/C: 33.9%
[31]
  viability, T/C: 83.8%
[32]
  viability, T/C: 84%
[33]
  viability, T/C: 69.7%
[34]
  viability, T/C: 67.3%
[35]
  viability, T/C: 45.5%
[36]
  viability, T/C: 31.4%
